Source: PubChem BioAssay AID256 (DTP/NCI, 2004)
Where “and” joins values, the source holds several entries; their conditions need not be identical. Equal entries are not always repeated. Inconclusive results and toxic doses are left out. Rule for the calls: active = survival T/C of 150% or more; inactive = T/C below 125% in these data.

Tested on: CD2F1 mice, L1210 leukemia ip, survival T/C
Experiment: NCI In Vivo Anticancer Drug Screen. Data for tumor model L1210 Leukemia (intraperitoneal) in CD2F1 (CDF1) mice
Conditions: endpoint: mean survival time, higher = longer survival
How it was run: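 Implant tumor; dose compound or vehicle; measure endpoint in both groups; report treated divided by control.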

[1] = dose: 100.0 mg/kg/injection, schedule: Q04DX003 (ip), vehicle: saline with Tween-80
[2] = dose: 200.0 mg/kg/injection, schedule: Q04DX003 (ip), vehicle: saline with Tween-80

Measured: T/C

NC(=S)N/N=C/c1ccc(Cl)cn1
inactive: dose: 4.89 mg/kg/injection, schedule: Q01DX009 (ip), vehicle: saline with Tween-80 120 % of control | dose: 6.25 mg/kg/injection, schedule: Q04DX002 (ip), vehicle: saline with Tween-80 100 % of control | dose: 12.5 mg/kg/injection, schedule: Q04DX002 (ip), vehicle: saline with Tween-80 104 % of control and 108 % of control

OCCN(CCO)c1ccc(O)cc1
inactive: dose: 5.0 mg/kg/injection, schedule: Q01DX001 (ip), vehicle: saline 92 % of control | dose: 10.0 mg/kg/injection, schedule: Q01DX001 (ip), vehicle: saline 92 % of control | dose: 20.0 mg/kg/injection, schedule: Q01DX001 (ip), vehicle: saline 92 % of control | dose: 40.0 mg/kg/injection, schedule: Q01DX001 (ip), vehicle: saline 92 % of control | dose: 75.0 mg/kg/injection, schedule: Q01DX001 (ip), vehicle: saline 103 % of control | dose: 150.0 mg/kg/injection, schedule: Q01DX001 (ip), vehicle: saline 101 % of control

CN(Cc1ccc[n+](Cc2ccc(S(=O)(=O)F)cc2)c1)C(=O)COc1ccc(Cl)c(Cl)c1
inactive: [1] 98 % of control | [2] 96 % of control

Nc1nc(-c2cccc([N+](=O)[O-])c2)c(N=Nc2ccccc2Cl)s1
inactive: dose: 100.0 mg/kg/injection, schedule: Q01DX001 (ip), vehicle: saline with Tween-80 89 % of control | dose: 400.0 mg/kg/injection, schedule: Q01DX001 (ip), vehicle: saline with Tween-80 96 % of control

OC(C=C(C(F)(F)F)C(F)(F)F)c1ccccc1Cl (stereo unspecified)
inactive: dose: 50.0 mg/kg/injection, schedule: Q04DX003 (ip), vehicle: saline with Tween-80 102 % of control | [1] 107 % of control | [2] 111 % of control
